Reference: ChEMBL document CHEMBL4828726, “Modification of 5-methylphenanthridium from benzothiazoles to indoles as potent FtsZ inhibitors: Broadening the antibacterial spectrum toward vancomycin-resistant enterococci” (Eur J Med Chem, 2021)

Assays:
Type in all cases: functional
Pseudomonas aeruginosa = experiment: Antibacterial activity against penicillin-susceptible Pseudomonas aeruginosa ATCC 27853 assessed as inhibition of bacterial growth measured after 20 hrs by two-fold microdilution assay
[1] = system: Staphylococcus epidermidis; experiment: Antibacterial activity against penicillin-resistant Staphylococcus epidermidis assessed as inhibition of bacterial growth measured after 20 hrs by two-fold microdilution assay
Staphylococcus aureus [2] = experiment: Ratio of MBC to MIC against erythromycin-susceptible Staphylococcus aureus ATCC 25923
Escherichia coli = experiment: Antibacterial activity against penicillin-susceptible Escherichia coli ATCC 25922 assessed as inhibition of bacterial growth measured after 20 hrs by two-fold microdilution assay
Enterococcus faecalis [3] = experiment: Bactericidal activity against Vancomycin-resistant Enterococcus faecalis ATCC 51299 assessed as inhibition of bacterial growth measured after 20 hrs by two-fold microdilution assay
Streptococcus pyogenes [4] = experiment: Antibacterial activity against erythromycin-susceptible Streptococcus pyogenes assessed as inhibition of bacterial growth measured after 20 hrs by two-fold microdilution assay
Enterococcus faecium [5] = experiment: Bactericidal activity against Vancomycin-resistant Enterococcus faecium ATCC 51559 assessed as inhibition of bacterial growth measured after 20 hrs by two-fold microdilution assay
Bacillus subtilis [6] = experiment: Bactericidal activity against penicillin-susceptible Bacillus subtilis ATCC 9372 assessed as inhibition of bacterial growth measured after 20 hrs by two-fold microdilution assay
Enterococcus faecium [7] = experiment: Antibacterial activity against Vancomycin-susceptible Enterococcus faecium ATCC 19434 assessed as inhibition of bacterial growth measured after 20 hrs by two-fold microdilution assay
Bacillus subtilis [8] = experiment: Antibacterial activity against penicillin-susceptible Bacillus subtilis ATCC 9372 assessed as inhibition of bacterial growth measured after 20 hrs by two-fold microdilution assay
Enterococcus faecalis [9] = experiment: Antibacterial activity against Vancomycin-susceptible Enterococcus faecalis ATCC 29212 assessed as inhibition of bacterial growth measured after 20 hrs by two-fold microdilution assay
Staphylococcus aureus [10] = experiment: Ratio of MBC to MIC against methicilline-resistant Staphylococcus aureus ATCC43300
Enterococcus faecalis [11] = experiment: Antibacterial activity against Vancomycin-resistant Enterococcus faecalis ATCC 51299 assessed as inhibition of bacterial growth measured after 20 hrs by two-fold microdilution assay
Staphylococcus aureus [12] = experiment: Antibacterial activity against clinical isolate Staphylococcus aureus C1 assessed as inhibition of bacterial growth measured after 20 hrs by two-fold microdilution assay
Enterococcus faecium [13] = experiment: Antibacterial activity against Vancomycin-resistant Enterococcus faecium ATCC 51559 assessed as inhibition of bacterial growth measured after 20 hrs by two-fold microdilution assay
Staphylococcus aureus [14] = experiment: Bactericidal activity against methicillin-resistant Staphylococcus aureus ATCC43300 assessed as inhibition of bacterial growth measured after 20 hrs by two-fold microdilution assay
Staphylococcus aureus [15] = experiment: Bactericidal activity against penicillin-resistant Staphylococcus aureus ATCC 31007 assessed as inhibition of bacterial growth measured after 20 hrs by two-fold microdilution assay
Bacillus pumilus [16] = experiment: Ratio of MBC to MIC against penicillin-susceptible Bacillus pumilus CMCC63202
Staphylococcus aureus [17] = experiment: Bactericidal activity against erythromycin-susceptible Staphylococcus aureus ATCC 25923 assessed as inhibition of bacterial growth measured after 20 hrs by two-fold microdilution assay
Enterococcus faecalis [18] = experiment: Bactericidal activity against Vancomycin-susceptible Enterococcus faecalis ATCC 29212 assessed as inhibition of bacterial growth measured after 20 hrs by two-fold microdilution assay
Enterococcus faecium [19] = experiment: Bactericidal activity against Vancomycin-susceptible Enterococcus faecium ATCC 19434 assessed as inhibition of bacterial growth measured after 20 hrs by two-fold microdilution assay
Bacillus pumilus [20] = experiment: Bactericidal activity against penicillin-susceptible Bacillus pumilus CMCC63202 assessed as inhibition of bacterial growth measured after 20 hrs by two-fold microdilution assay
Streptococcus pyogenes [21] = experiment: Antibacterial activity against erythromycin-resistant Streptococcus pyogenes assessed as inhibition of bacterial growth measured after 20 hrs by two-fold microdilution assay
Bacillus pumilus [22] = experiment: Antibacterial activity against penicillin-susceptible Bacillus pumilus CMCC63202 assessed as inhibition of bacterial growth measured after 20 hrs by two-fold microdilution assay
Staphylococcus aureus [23] = experiment: Antibacterial activity against methicillin-resistant Staphylococcus aureus ATCC43300 assessed as inhibition of bacterial growth measured after 20 hrs by two-fold microdilution assay
Staphylococcus aureus [24] = experiment: Antibacterial activity against erythromycin-susceptible Staphylococcus aureus ATCC 25923 assessed as inhibition of bacterial growth measured after 20 hrs by two-fold microdilution assay
Staphylococcus aureus [25] = experiment: Antibacterial activity against penicillin-resistant Staphylococcus aureus ATCC 31007 assessed as inhibition of bacterial growth measured after 20 hrs by two-fold microdilution assay

## C[n+]1cc2c3c(ccc2c2ccc4cc5c(cc4c21)OCO5)OCO3 [SANGUINARIUM]
Pseudomonas aeruginosa
  MIC: > 64 µg/mL
[1]
  MIC: 8 µg/mL
Staphylococcus aureus [2]
  Ratio: 32
Escherichia coli
  MIC: 32 µg/mL
Enterococcus faecalis [3]
  MBC: > 64 µg/mL
Streptococcus pyogenes [4]
  MIC: 2 µg/mL
Enterococcus faecium [5]
  MBC: > 64 µg/mL
Bacillus subtilis [6]
  MBC: > 128 µg/mL
Enterococcus faecium [7]
  MIC: 64 µg/mL
Bacillus subtilis [8]
  MIC: 2 µg/mL
Enterococcus faecalis [9]
  MIC: 16 µg/mL
Staphylococcus aureus [10]
  Ratio: 16
Enterococcus faecalis [11]
  MIC: 32 µg/mL
Staphylococcus aureus [12]
  MIC: 4 µg/mL
Enterococcus faecium [13]
  MIC: 32 µg/mL
Staphylococcus aureus [14]
  MBC: 128 µg/mL
Staphylococcus aureus [15]
  MBC: > 64 µg/mL
Bacillus pumilus [16]
  Ratio: 8
Staphylococcus aureus [17]
  MBC: 128 µg/mL
Enterococcus faecalis [18]
  MBC: > 64 µg/mL
Enterococcus faecium [19]
  MBC: > 64 µg/mL
Bacillus pumilus [20]
  MBC: 32 µg/mL
Streptococcus pyogenes [21]
  MIC: 2 µg/mL
Bacillus pumilus [22]
  MIC: 4 µg/mL
Staphylococcus aureus [23]
  MIC: 8 µg/mL
Staphylococcus aureus [24]
  MIC: 4 µg/mL
Staphylococcus aureus [25]
  MIC: 16 µg/mL
